Marks after values point to notes of the source that are not given here.
System: ZR75-1 cells
Experiment: Immuno-staining of protein expression and protein phosphorylation, ZR75-1 cells
Format: cell-based
Set-up: ATM level / P-317 (ULK1) level / Beclin1 level / ATG5 level / HDAC8 level / BIM level: scale not given here
Experimental: ZR75-1 and MCF7 cells were treated with vehicle control, GZ17-6.02, Palbociclib or the drugs combined for 3 hours and for 6 hours. Cells were fixed in place and immuno-staining performed with in house validated antibodies to detect protein expression and protein phosphorylation.

## CC(=O)c1c(C)c2cnc(Nc3ccc(N4CCNCC4)cn3)nc2n(C2CCCC2)c1=O [PALBO, Palbociclib]
ZR75, 3 h
  AKT level: 100
  AMPKa level: 100
  ATG5 level: 107
  ATG13 level: 101
  ATM level: 99
  BAK level: 107
  BAX level: 106
  BCL-XL level: 94
  BIM level: 109
  Beclin1 level: 112
  CD95 level: 100
  CHOP level: 107
  Cyclin D level: 108
  Cyclin E level: 103
  ER level: 100
  ERBB1 level: 99
  ERBB2 level: 99
  ERBB3 level: 100
  ERK1/2 level: 100
  ERK2 level: 100
  ERRB4 level: 100
  FAS-L level: 108
  GRP78 level: 108
  HDAC1 level: 101
  HDAC2 level: 99
  HDAC3 level: 96
  HDAC4 level: 100
  HDAC5 level: 98
  HDAC6 level: 99
  HDAC7 level: 101
  HDAC8 level: 100
  HDAC9 level: 101
  HDAC10 level: 98
  HDAC11 level: 96
  IDO1 level: 96
  JAK2 level: 100
  JNK1/2 level: 100
  LATS1/2 level: 98
  MCL1 level: 96
  MHCA level: 102
  NEDD4 level: 100
  NFkB level: 100
  ODC level: 100
  P-89 (TAZ) level: 101
  P-109 (YAP) level: 101
  P-127 (YAP) level: 100
  P-317 (ULK1) level: 112
  P-397 (YAP) level: 98
  P-757 (ULK1) level: 96
  P-909 (LATS1/2) level: 98
  P-1079 (LATS1/2) level: 101
  P-AMPKa level: 115#
  P-ATG13 level: 113#
  P-ATM level: 106
  P-ERBB1 level: 101
  P-ERBB2 level: 96
  P-ERBB3 level: 115#
  P-ERBB4 level: 107
  P-ERK level: 97
  P-JAK2 level: 100
  P-JNK level: 90
  P-KIT level: 100
  P-MET level: 101
  P-NFkB level: 100
  P-PDGFRb level: 100
  P-PERK level: 111
  P-S2448 (mTOR) level: 97
  P-S2481 (mTOR) level: 96
  P-T308 (AKT) level: 106
  P-Y694 (STAT5) level: 100
  P-Y705 (STAT3) level: 99
  P-eIF2a level: 110
  P-p38 level: 101
  P-p70 T389 level: 100
  PD-L1 level: 100
  PD-L2 level: 100
  PDGFRb level: 100
  PERK level: 101
  PP1 level: 99
  PTEN level: 101
  STAT3 level: 100
  STAT5 level: 100
  TAZ level: 100
  ULK1 level: 100
  Y416 (c-SRC) level: 101
  Y527 (c-SRC) level: 99
  YAP level: 98
  c-KIT level: 100
  c-MET level: 100
  c-SRC level: 101
  eIF2a level: 99
  mTOR level: 101
  p38 level: 100
  p70 S6K level: 100
ZR75, 3 h, listed as Palbo
  P-ERBB3 level: 115
ZR75, 6 h
  AKT level: 101
  AMPKa level: 100
  ATG5 level: 114#
  ATG13 level: 100
  ATM level: 100
  BAK level: 109
  BAX level: 108
  BCL-XL level: 91
  BIM level: 113#
  Beclin1 level: 118#
  CD95 level: 101
  CHOP level: 109
  Cyclin D level: 107
  Cyclin E level: 105
  ER level: 99
  ERBB1 level: 100
  ERBB2 level: 100
  ERBB3 level: 99
  ERK1/2 level: 100
  ERK2 level: 99
  ERRB4 level: 99
  FAS-L level: 109
  GRP78 level: 112
  HDAC1 level: 102
  HDAC2 level: 95
  HDAC3 level: 97
  HDAC4 level: 100
  HDAC5 level: 101
  HDAC6 level: 98
  HDAC7 level: 102
  HDAC8 level: 99
  HDAC9 level: 101
  HDAC10 level: 100
  HDAC11 level: 100
  IDO1 level: 100
  JAK2 level: 100
  JNK1/2 level: 100
  LATS1/2 level: 99
  MCL1 level: 91
  MHCA level: 103
  NEDD4 level: 97
  NFkB level: 101
  ODC level: 98
  P-89 (TAZ) level: 101
  P-109 (YAP) level: 105
  P-127 (YAP) level: 106
  P-317 (ULK1) level: 114#
  P-397 (YAP) level: 99
  P-757 (ULK1) level: 97
  P-909 (LATS1/2) level: 109
  P-1079 (LATS1/2) level: 102
  P-AMPKa level: 117#
  P-ATG13 level: 121#
  P-ATM level: 109
  P-ERBB1 level: 100
  P-ERBB2 level: 98
  P-ERBB3 level: 116#
  P-ERBB4 level: 101
  P-ERK level: 99
  P-JAK2 level: 99
  P-JNK level: 88
  P-KIT level: 100
  P-MET level: 99
  P-NFkB level: 98
  P-PDGFRb level: 98
  P-PERK level: 111
  P-S2448 (mTOR) level: 98
  P-S2481 (mTOR) level: 98
  P-T308 (AKT) level: 106
  P-Y694 (STAT5) level: 99
  P-Y705 (STAT3) level: 99
  P-eIF2a level: 109
  P-p38 level: 100
  P-p70 T389 level: 101
  PD-L1 level: 99
  PD-L2 level: 104
  PDGFRb level: 100
  PERK level: 99
  PP1 level: 99
  PTEN level: 101
  STAT3 level: 99
  STAT5 level: 99
  TAZ level: 102
  ULK1 level: 100
  Y416 (c-SRC) level: 102
  Y527 (c-SRC) level: 98
  YAP level: 99
  c-KIT level: 100
  c-MET level: 101
  c-SRC level: 101
  eIF2a level: 100
  mTOR level: 100
  p38 level: 99
  p70 S6K level: 99
ZR75, 6 h, listed as Palbo
  P-ERBB3 level: 116
ZR75 and MCF7, 3 h and 6 h, trend
  increase in the levels of cyclin D and cyclin E: 5-10%

Reference: patent US20220008359A1, “COMBINATION ANTI-CANCER PRODUCTS AND METHODS” (priority 2020, published 2022)
